# Entries after “also recorded” stand apart in the source; their conditions may differ. Where no end group is shown, it is not given here.
# Assays:
# TGR342 [1] = molecular target: T1, TGR342 (Homo sapiens, UniProt Q969V1); assay: aequorin luminescence assay of intracellular calcium mobilization, TGR342-transfected cells; type: cell-based; details: for TGR342 agonist activity at 1 μM / TGR342 agonist activity of MCH-related peptides: FIG. 5; for effect on intracellular calcium levels (peptide library screen): peptides at 1 μM, HEK293 or CHO cells co-transfected with pEF6-V5/TGR342 and pcDNA3/AEQ; for TGR342 agonist activity of MCH-related peptides: concentration not given
# T1 construct: The full-length TGR342 cDNA was cloned by; V5 (known only from the vector name pEF6-V5); expressed in transfected cells; host or cells: HEK293 and CHO cells, transient
# Procedure: HEK293 and CHO cells were transiently co-transfected with pEF6-V5/TGR342 and pcDNA3/AEQ (expressing aequorin). After 24 hours of incubation, the transfected cells were treated for one hour with serum free medium containing 2 μM coelenterazine f (Molecular Probes). The cells were then collected in the assay buffer HBSS (Hanks' Balanced Saline Solution containing 10 mM hepes and 0.1% BSA). Thereafter, the transfected cells were stimulated with the peptides at a concentration of 1 μM and the kinetics of […] from the cells was recorded with a microplate luminometer (EG & G BERTHOLT).
# TGR342 [2] = molecular target: T1, TGR342; assay: Ca^2+ response (aequorin assay) with or without pertussis toxin, TGR342-transfected cells; type: cell-based
# Procedure: (§1) The Ca^2+ responses were determined with the aequorin assay. Relative luminescence is expressed as the fold-luminescence of that from the cells treated with the highest cocnetration of the ligand without PTX treatment.
# (§2) LPA and ADP, which stimulate Ca^2+ increase through endogenous Gi and Gq receptors, respectively (see, e.g., Moolenaar, Ann. N. Y Acad. Sci. 905:1-10, 2000; Fields et al., Biochem. J. 321:561-571, 1997), were tested as controls. As expected, LPA-induced Ca^2+ response was PTX sensitive while the ADP-induced response was resistant (FIG. 7).
# TGR342 [3] = molecular target: T1, TGR342; assay: inositol phosphate production in TGR342-transfected cells with or without PTX; type: cell-based
# TGR342 [4] = molecular target: T1, TGR342; assay: [^125I]-MCH binding to membranes of TGR342-transfected HEK293 cells; details: inhibited by excess unlabeled MCH (data not shown)
# MCHR1 [5] = molecular target: T2, MCHR1 (Homo sapiens, UniProt Q99705); assay: Ca^2+ response (aequorin assay) with or without pertussis toxin, MCHR1-transfected cells; type: cell-based; details: MCH stimulation; 100 ng/ml PTX pretreatment for 16 hr
# Procedure: as §1, §2
# endogenous Gq receptors = assay: Ca^2+ response through endogenous Gq receptors with or without PTX (control); type: cell-based; details: HEK293 cells; 100 ng/ml PTX for 16 hr; FIG. 7
# Procedure: as §1, §2
# MCHR1 [6] = molecular target: T2, MCHR1; details: stated as known; cited from earlier work
# [7] = 100 ng/ml PTX pretreatment for 16 hr
# [8] = HEK293 (or CHO) cells transfected with pEF6/V5-TGR342
# T1 sequence (Q969V1 whole entry): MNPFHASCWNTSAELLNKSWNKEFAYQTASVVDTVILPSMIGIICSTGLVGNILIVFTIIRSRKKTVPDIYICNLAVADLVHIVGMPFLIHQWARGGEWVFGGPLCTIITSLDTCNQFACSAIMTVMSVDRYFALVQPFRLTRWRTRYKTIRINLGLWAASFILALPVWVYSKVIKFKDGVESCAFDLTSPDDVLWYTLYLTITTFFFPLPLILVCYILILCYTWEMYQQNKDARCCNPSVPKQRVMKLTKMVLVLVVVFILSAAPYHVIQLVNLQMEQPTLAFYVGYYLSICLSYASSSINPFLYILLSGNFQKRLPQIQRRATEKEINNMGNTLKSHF
# T2 sequence (Q99705 whole entry): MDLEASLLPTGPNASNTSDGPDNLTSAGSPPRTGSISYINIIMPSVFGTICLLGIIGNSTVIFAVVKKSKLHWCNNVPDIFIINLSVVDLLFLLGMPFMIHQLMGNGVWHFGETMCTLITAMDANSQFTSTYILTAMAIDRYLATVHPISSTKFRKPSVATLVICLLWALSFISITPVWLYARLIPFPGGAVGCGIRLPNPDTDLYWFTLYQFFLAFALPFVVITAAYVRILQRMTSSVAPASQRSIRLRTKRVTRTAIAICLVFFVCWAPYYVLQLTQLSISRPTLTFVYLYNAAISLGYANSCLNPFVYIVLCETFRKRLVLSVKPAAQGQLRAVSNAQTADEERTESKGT
molecule,measurement,setting,value
α-MSH: the functional MCH antagonist,TGR342 agonist activity at 1 μM,TGR342 [1],inactive as an agonist
same,effect on intracellular calcium levels (peptide library screen),TGR342 [1],Neither somatostatin nor α-MSH showed any detectable effect
somatostatin-14,TGR342 agonist activity at 1 μM,TGR342 [1],None of these peptides exhibited activity
"CSCC[C@@H]1NC(=O)[C@@H](NC(=O)[C@H](CCCNC(=N)N)NC(=O)[C@H](CC(C)C)NC(=O)[C@H](CCSC)NC(=O)[C@H](CC(=O)O)NC(=O)[C@H](Cc2ccccc2)NC(=O)[C@@H](N)CC(=O)O)CSSC[C@@H](C(=O)N[C@@H](Cc2c[nH]c3ccccc23)C(=O)N[C@@H](CCC(N)=O)C(=O)N[C@H](C(=O)O)C(C)C)NC(=O)[C@@H]2CCCN2C(=O)[C@H](CCCNC(=N)N)NC(=O)[C@H](Cc2ccc(O)cc2)NC(=O)[C@H](C(C)C)NC(=O)[C@H](CCCNC(=N)N)NC(=O)CNC(=O)[C@H](CC(C)C)NC1=O [MCH, melanin-concentrating hormone]",effect on intracellular calcium levels (peptide library screen),TGR342 [1],increased intracellular calcium levels
same,"PTX sensitivity of the Ca^2+ response, TGR342",TGR342 [2]; [7],insensitive to PTX treatment
same,Ca^2+ levels in TGR342-transfected cells,TGR342 [2]; [8],increased levels
same,"PTX sensitivity of the inositol phosphate response, TGR342",TGR342 [3]; [7],insensitive to PTX treatment
same,inositol phosphate levels in TGR342-transfected cells,TGR342 [3]; [8],increased levels; also recorded: increased the production of inositol phosphate
same,specificity of binding to TGR342,TGR342 [4],specific
same,"PTX sensitivity of the Ca^2+ response, MCHR1",MCHR1 [5],mostly inhibited
Nc1ncnc2c1ncn2[C@@H]1O[C@H](COP(=O)(O)OP(=O)(O)O)[C@@H](O)[C@H]1O [ADP],PTX sensitivity of the Ca^2+ response through endogenous Gq receptors,endogenous Gq receptors,resistant
cortistatin-17,TGR342 agonist activity at 1 μM,TGR342 [1],None of these peptides exhibited activity
"cortistatin-14 (PCKNFFWKTFSSCK; ends and bridges not checked; cysteine pairing not given here; UniProt Q62949 99-112, looked up) [peptide structurally very similar to somatostatin]",TGR342 agonist activity at 1 μM,TGR342 [1],None of these peptides exhibited activity
"[Phe^13, Tyr^19]-MCH",TGR342 agonist activity of MCH-related peptides,TGR342 [1],activates
same,activation of MCHR1 (known),MCHR1 [6],bind and activate
somatostatin-28,TGR342 agonist activity at 1 μM,TGR342 [1],None of these peptides exhibited activity
"neuropeptide GE: peptide from the same MCH precursor (GSVAFPAENGVQNTESTQE; Neuropeptide-glycine-glutamic acid; UniProt P20382 110-128, looked up)",TGR342 agonist activity of MCH-related peptides,TGR342 [1],inactive
"neuropeptide-EI: peptide from the same MCH precursor (EIGDEENSAKFPI; ends and bridges not checked; UniProt P20382 131-143, looked up)",TGR342 agonist activity of MCH-related peptides,TGR342 [1],inactive

# Source: US20050170397A1, “Novel receptors” (Tularik Inc., priority 2000, published 2005)
